Test results: PubChem BioAssay AID1963862 (Molecular Pharmacology Branch, DTP, NCI, 2024)

Tested on: KRAS patient-derived spheroids with HUVEC/MSC, viability
Experiment: Anticancer human tumor 941728-121-R-J1-PDC patient-derived lung adenocarcinoma cell line growth inhibition [KRAS2]
Conditions: for IC50: curve of first compound; for viability, T/C: stronger effect = lower value
Source text: Multicellular complex tumor spheroid response to RAS pathway inhibitors in combination with a targeted agents in patient-derived cell lines with oncogenic KRAS variants from multiple cancer types
A high-throughput screen of multi-cell type tumor spheroids was designed to identify active combinations of targeted small molecules and KRAS pathway inhibitors. Complex spheroids include a stromal component modeled by human endothelial cells (HUVEC) and fibroblasts modeled by human mesenchymal stem cells (MSCs). The concentration ranges selected for each drug and investigational agent were based upon clinically achievable concentrations if the clinical Cmax of the agent was known.
Compounds. The drugs and investigational agents: BI-3406 (NSC825286), BAY-293 (NSC824723), batoprotafib (TNO155; NSC825523), sotorasib (AMG 510; NSC818433), MRTX1257 (NSC819558), elimusertib (BAY 1895344; NSC800525), molibresib (GSK525762; NSC774829), temuterkib (LY3214996; NSC803410), venetoclax (NSC766270), alisertib (NSC759677), olaparib (NSC753686), talazoparib (NSC767125), erdafitinib (NSC781556), ipatasertib (NSC767898), cabozantinib (NSC761068), nintedanib (NSC756659), abemaciclib (NSC768073), docetaxel (NSC628503), trametinib (NSC758246), and sapanisertib (NSC764658) were obtained from the National Cancer Institute (NCI) Developmental Therapeutics Program Chemical Repository. The FDA-approved anticancer drug set is available from the Developmental Therapeutics Program. […] The stock solutions were prepared in dimethyl sulfoxide (DMSO, Sigma-Aldrich, St. Louis, MO, cat. D2650) at 800-fold the tested concentration and stored at -70 degrees C prior to their use. All drugs and investigational agents were tested over a range starting from a high concentration at or near the clinical Cmax and decreasing in half-log increments. If the clinical Cmax for an agent had not been determined, the highest concentration tested was 10 microM.
Cell Culture. All cells were maintained in an incubator at 37 degrees C and 5% CO2 with 95% humidity. The PDC lines were cultured according to standard operating procedures established by the NCI PDMR (https://pdmr.cancer.gov/sops/default.htm). Briefly, all PDCs were thawed and cultured in Matrigel-coated flasks prepared with a working solution of 1X Ham's F-12 nutrient mix, without supplementation (Invitrogen, Waltham, MA, cat. 11765054), 100 U/mL penicillin-streptomycin (Invitrogen, cat. 15140122), and 2.5% Matrigel (Corning Inc., Corning, NY, cat. 354248) for the first three passages. All PDCs were cultured in complete DMEM/F-12 media containing advanced DMEM/F-12 (Invitrogen, cat. 12634028), 4.9% defined fetal bovine serum, heat inactivated (HyClone Laboratories Inc., Logan, UT, cat. SH30070.03HI), 389 ng/mL hydrocortisone (Sigma-Aldrich, cat. H4001), 9.7 ng/mL human EGF recombinant protein (Invitrogen, cat. PHG0313), 23.4 microg/mL adenine (Sigma-Aldrich, cat. A2786), 97.3 U/mL penicillin-streptomycin (Invitrogen, cat. 15140122), 1.9 mM L-glutamine (Invitrogen, cat. 25030081), and 9.7 microM Y-27632 dihydrochloride (Tocris Bioscience, Bristol, United Kingdom, cat. 1254). The PDCs were cultured in complete DMEM/F12 media without 9.7 microM Y-27632 dihydrochloride for at least two passages prior to the screen. The established cell line HOP-62 was cultured in RPMI 1640 medium, HEPES (Invitrogen, cat. 22400105) with 10% defined fetal bovine serum (HyClone Laboratories Inc., cat. SH30070.03) and 2 mM L-glutamine (Invitrogen, cat. 25030081). The pooled donor HUVEC were cultured in endothelial cell growth medium 2 (PromoCell, Heidelberg, Germany, cat. C-22011) and the hMSC were cultured in mesenchymal stem cell growth medium 2 (PromoCell, cat. C-28009). For all experiments, HUVEC and hMSC were used at passages </=5, while the malignant cell lines were used at passages </=15. […]

[1] = second compound 0.1 µM, first compound 0.0316 µM
[2] = second compound 0.1 µM, first compound 0.1 µM
[3] = second compound 0.1 µM, first compound 0.316 µM
[4] = second compound 0.1 µM, first compound 1 µM
[5] = second compound 0.1 µM, first compound 3.16 µM
[6] = second compound 0.316 µM, first compound 0.0316 µM
[7] = second compound 0.316 µM, first compound 0.1 µM
[8] = second compound 0.316 µM, first compound 0.316 µM
[9] = second compound 0.316 µM, first compound 1 µM
[10] = second compound 0.316 µM, first compound 3.16 µM
[11] = second compound 1 µM, first compound 0.0316 µM
[12] = second compound 1 µM, first compound 0.1 µM
[13] = second compound 1 µM, first compound 0.316 µM
[14] = second compound 1 µM, first compound 1 µM
[15] = second compound 1 µM, first compound 3.16 µM
[16] = second compound 3.16 µM, first compound 0.0316 µM
[17] = second compound 3.16 µM, first compound 0.1 µM
[18] = second compound 3.16 µM, first compound 0.316 µM
[19] = second compound 3.16 µM, first compound 1 µM
[20] = second compound 3.16 µM, first compound 3.16 µM
[21] = second compound 10 µM, first compound 0.0316 µM
[22] = second compound 10 µM, first compound 0.1 µM
[23] = second compound 10 µM, first compound 0.316 µM
[24] = second compound 10 µM, first compound 1 µM
[25] = second compound 10 µM, first compound 3.16 µM
[26] = second compound 0.1 µM, first compound 10 µM
[27] = second compound 0.316 µM, first compound 10 µM
[28] = second compound 1 µM, first compound 10 µM
[29] = second compound 3.16 µM, first compound 10 µM
[30] = second compound 10 µM, first compound 10 µM
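Further: spheroids exposed to agents for seven days before readout.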

Q: With CC1COCCN1c1cc(-c2ccnn2C)c2ccnc(-c3ccn[nH]3)c2n1 (stereo not given) + C=CC(=O)N1CCN(c2nc(=O)n(-c3c(C)ccnc3C(C)C)c3nc(-c4c(O)cccc4F)c(F)cc23)C(C)C1 as the molecule, how does the IC50 (second compound 0.1 µM) read?
A: < 10 nM

Q: And the IC50 (second compound 0.316 µM)?
A: < 10 nM

Q: What about the IC50 (second compound 1 µM) of the same molecule?
A: < 10 nM

Q: What about the IC50 (second compound 3.16 µM) of the same molecule?
A: < 10 nM

Q: What about the IC50 (second compound 10 µM) of the same molecule?
A: < 10 nM

Q: What about the viability, T/C (second compound 0.1 µM, first compound 0.01 µM) of the same molecule?
A: 23.9%

Q: And the viability, T/C [1]?
A: 20.3%

Q: And the viability, T/C [2]?
A: 18.5%

Q: And the viability, T/C [3]?
A: 16.3%

Q: What about the viability, T/C [4] of the same molecule?
A: 13.1%

Q: And the viability, T/C [5]?
A: 10.7%

Q: What about the viability, T/C (second compound 0.316 µM, first compound 0.01 µM) of the same molecule?
A: 23.6%

Q: And the viability, T/C [6]?
A: 23.2%

Q: What about the viability, T/C [7] of the same molecule?
A: 19.2%

Q: And the viability, T/C [8]?
A: 19.1%

Q: What about the viability, T/C [9] of the same molecule?
A: 13.5%

Q: What about the viability, T/C [10] of the same molecule?
A: 10.5%

Q: What about the viability, T/C (second compound 1 µM, first compound 0.01 µM) of the same molecule?
A: 25.1%

Q: And the viability, T/C [11]?
A: 24.6%

Q: What about the viability, T/C [12] of the same molecule?
A: 21%

Q: And the viability, T/C [13]?
A: 17.5%

Q: What about the viability, T/C [14] of the same molecule?
A: 14.1%

Q: What about the viability, T/C [15] of the same molecule?
A: 14%

Q: And the viability, T/C (second compound 3.16 µM, first compound 0.01 µM)?
A: 26.2%

Q: What about the viability, T/C [16] of the same molecule?
A: 27.1%

Q: What about the viability, T/C [17] of the same molecule?
A: 24.2%

Q: And the viability, T/C [18]?
A: 21.2%

Q: And the viability, T/C [19]?
A: 20.1%

Q: And the viability, T/C [20]?
A: 16.5%

Q: And the viability, T/C (second compound 10 µM, first compound 0.01 µM)?
A: 33.3%

Q: And the viability, T/C [21]?
A: 34.8%

Q: What about the viability, T/C [22] of the same molecule?
A: 31.9%

Q: And the viability, T/C [23]?
A: 28.4%

Q: And the viability, T/C [24]?
A: 25.4%

Q: And the viability, T/C [25]?
A: 30.5%

Q: Which results are given for CC1OCC2(CCN(c3cnc(Sc4ccnc(N)c4Cl)c(N)n3)CC2)C1N (stereo not given) + C=CC(=O)N1CCN(c2nc(=O)n(-c3c(C)ccnc3C(C)C)c3nc(-c4c(O)cccc4F)c(F)cc23)C(C)C1?
A: IC50 (second compound 0.1 µM): < 31.6 nM; IC50 (second compound 0.316 µM): < 31.6 nM; IC50 (second compound 1 µM): < 31.6 nM; IC50 (second compound 3.16 µM): < 31.6 nM; IC50 (second compound 10 µM): < 31.6 nM; viability, T/C [1]: 21.9%; viability, T/C [2]: 20.6%; viability, T/C [3]: 17.3%; viability, T/C [4]: 16.8%; viability, T/C [5]: 16.6%; viability, T/C [26]: 12.9%; viability, T/C [6]: 26.5%; viability, T/C [7]: 23%; viability, T/C [8]: 20.1%; viability, T/C [9]: 17.1%; viability, T/C [10]: 15.1%; viability, T/C [27]: 12.4%; viability, T/C [11]: 31.1%; viability, T/C [12]: 24.7%; viability, T/C [13]: 20.4%; viability, T/C [14]: 18.9%; viability, T/C [15]: 19.6%; viability, T/C [28]: 17.8%; viability, T/C [16]: 29%; viability, T/C [17]: 25.4%; viability, T/C [18]: 25.6%; viability, T/C [19]: 21.5%; viability, T/C [20]: 22.1%; viability, T/C [29]: 18.5%; viability, T/C [21]: 34.1%; viability, T/C [22]: 35%; viability, T/C [23]: 31%; viability, T/C [24]: 26.8%; viability, T/C [25]: 26.7%; viability, T/C [30]: 28.5%

Q: Which results are given for CCNC(=O)CC1N=C(c2ccc(Cl)cc2)c2cc(OC)ccc2-n2c(C)nnc21 (stereo not given) + C=CC(=O)N1CCN(c2nc(=O)n(-c3c(C)ccnc3C(C)C)c3nc(-c4c(O)cccc4F)c(F)cc23)C(C)C1?
A: IC50 (second compound 0.1 µM): < 31.6 nM; IC50 (second compound 0.316 µM): < 31.6 nM; IC50 (second compound 1 µM): < 31.6 nM; IC50 (second compound 3.16 µM): < 31.6 nM; IC50 (second compound 10 µM): < 31.6 nM; viability, T/C [1]: 25.4%; viability, T/C [2]: 27%; viability, T/C [3]: 21.2%; viability, T/C [4]: 14.3%; viability, T/C [5]: 11.7%; viability, T/C [26]: 10.8%; viability, T/C [6]: 27.4%; viability, T/C [7]: 23.8%; viability, T/C [8]: 20.4%; viability, T/C [9]: 14.7%; viability, T/C [10]: 13%; viability, T/C [27]: 10.3%; viability, T/C [11]: 28.9%; viability, T/C [12]: 28.7%; viability, T/C [13]: 21.7%; viability, T/C [14]: 16.2%; viability, T/C [15]: 14%; viability, T/C [28]: 10.7%; viability, T/C [16]: 30.4%; viability, T/C [17]: 28%; viability, T/C [18]: 22.5%; viability, T/C [19]: 18.3%; viability, T/C [20]: 11.6%; viability, T/C [29]: 8.77%; viability, T/C [21]: 34.1%; viability, T/C [22]: 31.6%; viability, T/C [23]: 23.4%; viability, T/C [24]: 15.1%; viability, T/C [25]: 11%; viability, T/C [30]: 8.28%

Q: What does the source list for Cn1nccc1Nc1nccc(-c2cc3c(s2)C(C)(C)N(CCN2CCOCC2)C3=O)n1 + C=CC(=O)N1CCN(c2nc(=O)n(-c3c(C)ccnc3C(C)C)c3nc(-c4c(O)cccc4F)c(F)cc23)C(C)C1?
A: IC50 (second compound 0.1 µM): < 31.6 nM; IC50 (second compound 0.316 µM): < 31.6 nM; IC50 (second compound 1 µM): < 31.6 nM; IC50 (second compound 3.16 µM): < 31.6 nM; IC50 (second compound 10 µM): < 31.6 nM; viability, T/C [1]: 23.9%; viability, T/C [2]: 23.4%; viability, T/C [3]: 19%; viability, T/C [4]: 19.6%; viability, T/C [5]: 17.7%; viability, T/C [26]: 20.7%; viability, T/C [6]: 25.4%; viability, T/C [7]: 24.4%; viability, T/C [8]: 20.2%; viability, T/C [9]: 18.9%; viability, T/C [10]: 16.8%; viability, T/C [27]: 21.4%; viability, T/C [11]: 26.1%; viability, T/C [12]: 27.4%; viability, T/C [13]: 21.1%; viability, T/C [14]: 19.9%; viability, T/C [15]: 17.8%; viability, T/C [28]: 29.4%; viability, T/C [16]: 30.6%; viability, T/C [17]: 31.4%; viability, T/C [18]: 24.9%; viability, T/C [19]: 23.6%; viability, T/C [20]: 22.9%; viability, T/C [29]: 32.3%; viability, T/C [21]: 36.4%; viability, T/C [22]: 38%; viability, T/C [23]: 30.7%; viability, T/C [24]: 30%; viability, T/C [25]: 34.2%; viability, T/C [30]: 57.5%
